# In patent US20240140980A1, “HETEROCYCLIC INHIBITORS OF CD73 FOR TREATMENT OF DISEASE” (Teon Therapeutics, Inc., priority 2022, published 2024):
# Target: CD73 (Homo sapiens (Human), UniProt P21589)
# Assay: Biochemical CD73 Assay (Malachite Green free phosphate detection)
# Conditions: recombinant human CD73 2 nM, AMP 40 μM, 45 min at 37° C.
# Description: Activity of recombinant CD73 was measured by quantification of free phosphate using the Malachite Green detection system (R&D Systems #DY996). Test compounds were solubilized in DMSO and dispensed into 384-well polystyrene plates in a 8-point 3× titration in duplicates. Then, 10 μL of 4 nM human CD73 enzyme (Novoprotein #C446) in phosphate-free assay buffer (10 mM HEPES, pH 7.4, 125 mM NaCl, 1 mM KCl, 10 mM glucose, 2 mM MgCl2) was added to the plates. The compound and enzyme were incubated for 15 min at RT. Then, 10 μL of 80 μM AMP (Sigma Aldrich #A1752) in the assay buffer was added and the reaction mixture was incubated for 45 min at 37° C. The final concentrations of CD73 and AMP in the reaction were 2 nM and 40 μM, respectively. The reaction was stopped by adding 5 μL of Malachite Green reagent A and incubating for 10 min at RT, followed by addition of 5 μL of Malachite Green reagent B and incubation for 20 min at RT. Absorbance was then read at 620 nm with the Flexstation spectrophotometer (Molecular Devices). The IC50 values were determined using a four-parameter nonlinear regression curve fit.
# Sequence of CD73 (P21589 27-574): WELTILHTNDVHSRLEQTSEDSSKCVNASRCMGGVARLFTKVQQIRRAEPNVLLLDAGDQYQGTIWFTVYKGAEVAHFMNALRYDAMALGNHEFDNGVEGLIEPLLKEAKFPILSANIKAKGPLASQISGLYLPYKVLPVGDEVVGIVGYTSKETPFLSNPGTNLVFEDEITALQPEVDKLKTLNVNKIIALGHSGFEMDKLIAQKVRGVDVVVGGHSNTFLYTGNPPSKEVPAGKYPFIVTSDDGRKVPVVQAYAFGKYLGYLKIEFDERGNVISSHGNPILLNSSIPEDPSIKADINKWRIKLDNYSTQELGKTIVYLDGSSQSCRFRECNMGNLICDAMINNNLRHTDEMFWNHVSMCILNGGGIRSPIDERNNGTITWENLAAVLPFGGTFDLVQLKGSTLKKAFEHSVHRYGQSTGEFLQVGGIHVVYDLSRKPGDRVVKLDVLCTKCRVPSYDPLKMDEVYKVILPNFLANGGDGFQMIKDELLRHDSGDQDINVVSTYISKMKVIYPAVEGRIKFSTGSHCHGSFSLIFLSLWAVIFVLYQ
row,Structure (SMILES),IC50 [nM]
1,"COC[C@@](OC[C@H]1O[C@@H](n2ncc3c(NC4CCCC4)nc(Cl)nc32)[C@H](O)[C@@H]1O)(C(=O)N=[S@@](C)(=O)NC(C)=O)P(=O)(O)O [Example 5, ((S)-1-(((R)-Acetamido(methyl)(oxo)-λ^6-sulfaneylidene)amino)-2-(((2R,3S,4R,5R)-5-(6-chloro-4-(cyclopentylamino)-1H-pyrazolo[3,4-d]pyrimidin-1-yl)-3,4-dihydroxytetrahydrofuran-2-yl)methoxy)-3-methoxy-1-oxopropan-2-yl)phosphonic Acid]",1.6
2,"COC[C@](OC[C@H]1O[C@@H](n2ncc3c(NC4CCCC4)nc(Cl)nc32)[C@H](O)[C@@H]1O)(C(=O)N=[S@](C)(N)=O)P(=O)(O)O [Example 2, ((2R)-1-((Amino(methyl)(oxo)-λ^6-sulfaneylidene)amino)-2-(((2R,3S,4R,5R)-5-(6-chloro-4-(cyclopentylamino)-1H-pyrazolo[3,4-d]pyrimidin-1-yl)-3,4-dihydroxytetrahydrofuran-2-yl)methoxy)-3-methoxy-1-oxopropan-2-yl)phosphonic Acid]",19
3,"COC[C@@](OC[C@H]1O[C@@H](n2ncc3c(NC4CCCC4)nc(Cl)nc32)[C@H](O)[C@@H]1O)(C(=O)N=[S@](C)(=O)NC(=O)C1COC1)P(=O)(O)O [Example 22, ((2S)-2-(((2R,3S,4R,5R)-5-(6-chloro-4-(cyclopentylamino)-1H-pyrazolo[3,4-d]pyrimidin-1-yl)-3,4-dihydroxytetrahydrofuran-2-yl)methoxy)-3-methoxy-1-((methyl(oxetane-3-carboxamido)(oxo)-λ^6-sulfaneylidene)amino)-1-oxopropan-2-yl)phosphonic Acid]",0.21
4,"CNC(=O)N[S@@](C)(=O)=NC(=O)[C@@](COC)(OC[C@H]1O[C@@H](n2ncc3c(NC4CCCC4)cc(Cl)nc32)[C@H](O)[C@@H]1O)P(=O)(O)O [Example 30, ((S)-2-(((2R,3S,4R,5R)-5-(6-chloro-4-(cyclopentylamino)-1H-pyrazolo[3,4-b]pyridin-1-yl)-3,4-dihydroxytetrahydrofuran-2-yl)methoxy)-3-methoxy-1-(((S)-methyl(3-methylureido)(oxo)-λ^6-sulfaneylidene)amino)-1-oxopropan-2-yl)phosphonic Acid]",0.6
5,"COC[C@](OC[C@H]1O[C@@H](n2ncc3c(NC4CCCC4)nc(Cl)nc32)[C@H](O)[C@@H]1O)(C(=O)N=[S@@](C)(=O)NC(C)=O)P(=O)(O)O [Example 6, ((R)-1-(((R)-Acetamido(methyl)(oxo)-λ^6-sulfaneylidene)amino)-2-(((2R,3S,4R,5R)-5-(6-chloro-4-(cyclopentylamino)-1H-pyrazolo[3,4-d]pyrimidin-1-yl)-3,4-dihydroxytetrahydrofuran-2-yl)methoxy)-3-methoxy-1-oxopropan-2-yl)phosphonic Acid]",220
6,"CNC(=O)N[S@](C)(=O)=NC(=O)[C@@](COC)(OC[C@H]1O[C@@H](n2ncc3c(NC4CCCC4)cc(Cl)nc32)[C@H](O)[C@@H]1O)P(=O)(O)O [Example 29, ((S)-2-(((2R,3S,4R,5R)-5-(6-chloro-4-(cyclopentylamino)-1H-pyrazolo[3,4-b]pyridin-1-yl)-3,4-dihydroxytetrahydrofuran-2-yl)methoxy)-3-methoxy-1-(((R)-methyl(3-methylureido)(oxo)-λ^6-sulfaneylidene)amino)-1-oxopropan-2-yl)phosphonic Acid]",10
7,"COC[C@@](OC[C@H]1O[C@@H](n2ncc3c(NC4CCCC4)nc(Cl)nc32)[C@H](O)[C@@H]1O)(C(=O)N=S(C)(=O)NC(=O)C1COC1)P(=O)(O)O (single isomer, unassigned) [Example 21]",5.1
8,"COC[C@](OC[C@H]1O[C@@H](n2ncc3c(NC4CCCC4)nc(Cl)nc32)[C@H](O)[C@@H]1O)(C(=O)N=[S@@](C)(=O)NC(=O)OC)P(=O)(O)O [Example 8, ((R)-2-(((2R,3S,4R,5R)-5-(6-Chloro-4-(cyclopentylamino)-1H-pyrazolo[3,4-d]pyrimidin-1-yl)-3,4-dihydroxytetrahydrofuran-2-yl)methoxy)-3-methoxy-1-(((R)-((methoxycarbonyl)amino)(methyl)(oxo)-λ^6-sulfaneylidene)amino)-1-oxopropan-2-yl)phosphonic Acid]",879
9,"COC[C@@](OC[C@H]1O[C@@H](n2ncc3c(NC4CCCC4)nc(Cl)nc32)[C@H](O)[C@@H]1O)(C(=O)N=[S@@](C)(=O)NC(=O)OC)P(=O)(O)O [Example 7, ((S)-2-(((2R,3S,4R,5R)-5-(6-Chloro-4-(cyclopentylamino)-1H-pyrazolo[3,4-d]pyrimidin-1-yl)-3,4-dihydroxytetrahydrofuran-2-yl)methoxy)-3-methoxy-1-(((R)-((methoxycarbonyl)amino)(methyl)(oxo)-λ^6-sulfaneylidene)amino)-1-oxopropan-2-yl)phosphonic Acid]",1.7
10,"COC[C@@](OC[C@H]1O[C@@H](n2ncc3c(NC4CCCC4)nc(Cl)nc32)[C@H](O)[C@@H]1O)(C(=O)N=[S@@](C)(=O)NC(=O)c1cccnc1)P(=O)(O)O [Example 27, ((2S)-2-(((2R,3S,4R,5R)-5-(6-chloro-4-(cyclopentylamino)-1H-pyrazolo[3,4-d]pyrimidin-1-yl)-3,4-dihydroxytetrahydrofuran-2-yl)methoxy)-3-methoxy-1-((methyl(nicotinamido)(oxo)-λ^6-sulfaneylidene)amino)-1-oxopropan-2-yl)phosphonic Acid]",7.8
11,"COC[C@@](OC[C@H]1O[C@@H](n2ncc3c(NC4CCCC4)nc(Cl)nc32)[C@H](O)[C@@H]1O)(C(=O)N=[S@](C)(=O)NC(=O)c1cnn(C)c1)P(=O)(O)O (single isomer, unassigned) [Example 24]",2.3
12,"COC[C@@](OC[C@H]1O[C@@H](n2ncc3c(NC4CCCC4)nc(Cl)nc32)[C@H](O)[C@@H]1O)(C(=O)N=[S@@](C)(=O)NC(=O)c1cnn(C)c1)P(=O)(O)O (single isomer, unassigned) [Example 23]",0.47
13,"COC[C@](OC[C@H]1O[C@@H](n2ncc3c(NC4CCCC4)nc(Cl)nc32)[C@H](O)[C@@H]1O)(C(=O)N=[S@@](C)(N)=O)P(=O)(O)O [Example 4, ((2R)-1-((Amino(methyl)(oxo)-λ^6-sulfaneylidene)amino)-2-(((2R,3S,4R,5R)-5-(6-chloro-4-(cyclopentylamino)-1H-pyrazolo[3,4-d]pyrimidin-1-yl)-3,4-dihydroxytetrahydrofuran-2-yl)methoxy)-3-methoxy-1-oxopropan-2-yl)phosphonic Acid]",275
14,"COC[C@@](OC[C@H]1O[C@@H](n2ncc3c(NC4CCCC4)cc(Cl)nc32)[C@H](O)[C@@H]1O)(C(=O)N=[S@@](C)(=O)NC(=O)C(C)C)P(=O)(O)O [Example 33, ((2S)-2-(((2R,3S,4R,5R)-5-(6-chloro-4-(cyclopentylamino)-1H-pyrazolo[3,4-b]pyridin-1-yl)-3,4-dihydroxytetrahydrofuran-2-yl)methoxy)-1-((isobutyramido(methyl)(oxo)-λ^6-sulfaneylidene)amino)-3-methoxy-1-oxopropan-2-yl)phosphonic Acid]",11
15,"COC[C@@](OC[C@H]1O[C@@H](n2ncc3c(NC4CCCC4)nc(Cl)nc32)[C@H](O)[C@@H]1O)(C(=O)N=[S@@](C)(=O)NC(=O)c1ccc(F)cc1)P(=O)(O)O (single isomer, unassigned) [Example 25]",1.13
